Laboratory results reported in PubChem BioAssay (NCI).
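Test compounds were applied to cells in 96-well plates for 48 hours at 5 doses. GI50 is the concentration that inhibits growth by half. At the TGI there is no net growth.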

Experiments:
Test in all cases: NCI-60 cell line screen, 48 h
[1] = system: M14 melanoma
[2] = system: SF-268 CNS
[3] = system: SK-MEL-28 melanoma
[4] = system: T-47D breast
[5] = system: MDA-N
[6] = system: HOP-92 NSCLC
[7] = system: 786-0 renal
[8] = system: A498 renal
[9] = system: MCF7 breast
[10] = system: M19-MEL melanoma
[11] = system: LXFL 529 NSCLC
[12] = system: SNB-78 CNS
[13] = system: DMS 114 small cell lung

Row | SMILES | TGI [1] [µM] | TGI [2] [µM] | TGI [3] [µM] | TGI [4] [µM] | TGI [5] [µM] | TGI [6] [µM] | TGI [7] [µM] | TGI [8] [µM] | TGI [9] [µM] | TGI [10] [µM] | TGI [11] [µM] | TGI [12] [µM] | TGI [13] [µM] | GI50 [1] [µM] | GI50 [2] [µM] | GI50 [3] [µM] | GI50 [4] [µM] | GI50 [6] [µM] | GI50 [8] [µM] | GI50 [9] [µM]
1 | O=C1c2ccccc2-c2ccc(N(Cc3ccc(Br)cc3)Cc3ccc(Br)cc3)cc21 | > 100 | > 100 | > 100 | > 100 | > 100 | > 100 | > 100 | > 100 | > 100 |  |  |  |  |  |  |  |  |  |  | 
2 | COc1ccc(C2C(Cl)C(=O)N2NC(=O)c2ccc(NC(C)=O)cc2)cc1OC (centres undefined) |  | > 100 | > 100 |  |  | > 100 |  |  |  | > 100 | > 100 |  |  |  |  |  |  |  |  | 
3 | CSc1nc(NC2OC(CO)C(O)C(O)C2O)c(N)c(=O)n1C (centres undefined) |  | > 100 | > 100 |  |  | > 100 |  | > 100 | > 100 | > 100 |  | > 100 | > 100 |  |  |  |  |  |  | 
4 | O=C(Nc1ccc(-n2cc(-c3ccncc3)c(-c3ccc(O)c(Cl)c3)n2)cc1)c1ccc(Cl)c(Cl)c1 | 1.52 | > 32.5 | > 32.5 | > 32.5 |  | 20.5 |  | > 32.5 | > 32.5 |  |  |  |  | 0.668 | > 32.5 | > 32.5 | 2.37 | 0.819 | > 32.5 | 2.04
5 | CCCCCCCCCCCCCCCc1ccc(C(=O)C[n+]2ccccc2)cc1 |  |  | 2.99 | 3.77 |  | 3.93 |  | 8.33 |  |  |  |  |  |  |  | 1.21 | 1.38 | 0.295 | 1.1 | 
6 | CCN(CC)CCSc1nc2c([N+](=O)[O-])cccc2[nH]1 | > 100 |  | > 100 |  |  | > 100 |  |  |  | > 100 | > 100 | > 100 | > 100 |  |  |  |  |  |  | 
7 | N=C(N)c1ccc(-c2ccc(-c3ccccc3)o2)cc1 | 3.66 | 4.28 | 3.35 |  |  | 4.14 |  | 9.46 |  |  |  |  |  | 1.77 | 1.96 | 1.67 |  | 1.95 | 2.85 | 
8 | Nc1cccc2cc(S(=O)(=O)Nc3ccc(C(=O)O)cc3)ccc12 | > 100 | > 100 | > 100 | > 100 | > 100 | > 100 | > 100 | > 100 | > 100 |  |  |  |  |  |  |  |  |  |  | 
9 | O=C(c1no[n+]([O-])c1C(=O)c1csc2ccccc12)c1csc2ccccc12 | 22.4 | 23.2 | 11 | 13.7 | 21.6 | 5.01 | 0.713 | 29.3 | 25 |  |  |  |  |  |  |  |  |  |  | 
10 | CNC1=C(C)C(=O)C2=C(C1=O)C(COC(N)=O)C1(OC)C3NC3CN21 (centres undefined) | 2.01 | 12.9 | 6.43 | 18.1 | 5.65 |  |  | 2.35 | 10.6 |  |  |  |  |  |  |  |  |  |  | 
11 | Cc1ccc(CCCC(=O)O)cc1C | > 100 | > 100 | > 100 |  | > 100 | > 100 | > 100 |  |  |  |  |  |  |  |  |  |  |  |  | 
12 | CC(C)=CCC/C(C)=C/CC/C(C)=C/C(O)c1ccccc1 (centres undefined) | 32.7 | 35.3 |  |  |  |  |  | 34.2 |  | 34.6 | 31.8 | 68 | 39.4 |  |  |  |  |  |  | 
